Results from US20230286973A1, “PROTEIN SECRETION INHIBITORS” (KEZAR LIFE SCIENCES, priority 2020, published 2023).

Tests used:
[1] = tested on: PD1-ss+10aa/Gaussia Luciferase; assay: Dox-Induced PD1-ss-Gluc Assay; type: cell-based; conditions: 24 hr Dox induction; 293FRT/TO cells; read-out: 24 hr Dox Inducible PD1ssGluc 293FRT/TO: Mean IC50
Method in brief: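 Flp-In 293 T-REx, stable line; Tet-regulated PD1-ss+10aa fused to Gaussia luciferase; plated day prior; cpd + doxycycline in DMSO/media; 37 °C, 5% CO2.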

[2] = tested on: TNFα-FL/Gaussia Luciferase; assay: Dox Induced TNFα-FL-Gluc Assay; type: cell-based; conditions: for IC50: 24 hr Dox induction, 293FRT/TO cells, read-out: 24 hr Dox Inducible TNFaFLGluc 293FRT/TO: Mean IC50; for 24 hr Dox Inducible TNFaFLGluc 293FRT/TO: TNF/PD1: ratio of TNFaFLGluc IC50 to PD1ssGluc IC50
Method in brief: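 Flp-In 293 T-REx cells stably expressing full-length TNFα (aa 1-233) fused at its C-terminus to Gaussia luciferase under tetracycline-regulated control were plated the day before assay. Compound dilutions in DMSO/media containing doxycycline were added and incubated at 37 °C, 5% CO2. Unspecified stereochemistry denotes stereoisomer mixtures.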

[3] = tested on: HER3-ss+4aa/Gaussia Luciferase; assay: Dox-Induced Her3-ss-Gluc Assay; type: cell-based; conditions: 24 hr Dox induction; 293FRT/TO cells; read-out: 24 hr Dox Inducible Her3(ss + 4)Gluc 293FRT/TO: Mean IC50
Method in brief: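 Stable Flp-In 293 T-REx line expressing Gaussia luciferase fused to the HER3 signal sequence plus 4 amino acids under tetracycline-regulated (T-REx) control. Cells plated the day before, then treated with compound dilutions in DMSO/media containing doxycycline and incubated at 37° C., 5% CO2.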

[4] = tested on: IL-2-FL/Gaussia Luciferase; assay: Dox Induced IL2-FL-Gluc Assay; type: cell-based; conditions: for IC50: 24 hr Dox induction, 293FRT/TO cells, read-out: 24 hr Dox Inducible IL2FLGluc 293FRT/TO: Mean IC50; for 24 hr Dox Inducible IL2FLGluc 293FRT/TO: IL2/PD1: ratio of IL2FLGluc IC50 to PD1ssGluc IC50
Method in brief: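 Flp-In 293 T-REx cells stably carrying doxycycline-inducible full-length IL-2 (aa 1-153) fused at its C-terminus to Gaussia luciferase, selected with hygromycin and blasticidin. Cells were plated the day before, then treated with compounds in DMSO/media containing doxycycline at 37° C, 5% CO2.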

[5] = tested on: multiple myeloma cell line NCI-H929; assay: H929 Cell Viability Assay; type: cell-based, human; conditions: Homo sapiens, NCI-H929, 48 h, NCI-H929 cells, Celltiter-Glo
Method in brief: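 NCI-H929 cells, resuspended in RPMI 1640 with 10% FBS and 2 mM glutamine, were treated with compound dilutions in DMSO/media and incubated 48 hours at 37° C, 5% CO2. Viability was read by CellTiter-Glo luminescence. Compounds drawn without stereochemistry were tested as stereoisomer mixtures.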

[6] = tested on: multiple myeloma cell line U266B1; assay: U266 Cell Viability Assay; type: cell-based, human; conditions: Homo sapiens, U-266, 48 h, U266B1 cells, Celltiter-Glo
Method in brief: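 Cells grown in RPMI 1640 with 10% FBS, 2 mM glutamine and penicillin/streptomycin were exposed to compound dilutions in DMSO/media for 48 hours at 37° C., 5% CO2. Viability was read by CellTiter-Glo luminescence. Undefined stereocentres mean data for stereoisomer mixtures.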

[7] = Liver Microsome Stability Assay (rat); conditions: rat liver microsomes, with NADPH, 1.0 uM compound
Method: (§1) Stability of a compound was assessed in the presence of liver microsomes from various sources—mouse, rat, monkey and human liver microsomes. 1.0 uM compound, 0.4% DMSO in 0.1 M Potassium Phosphate with 1.0 mg/mL liver microsomes, were incubated at 37° C. with or without 1 mM NADPH. The samples were quenched at 0, and 30 minutes.

[8] = Liver Microsome Stability Assay (mouse); conditions: mouse liver microsomes, with NADPH, 1.0 uM compound
Method: as §1

[9] = Liver Microsome Stability Assay (human); conditions: human liver microsomes, with NADPH, 1.0 uM compound
Method: as §1

[10] = Liver Microsome Stability Assay (monkey); conditions: monkey liver microsomes, with NADPH, 1.0 uM compound
Method: as §1

| SMILES | IC50 [1] [µM] | IC50 [2] [µM] | 24 hr Dox Inducible TNFaFLGluc 293FRT/TO: TNF/PD1 [2] | IC50 [3] [µM] | IC50 [4] [µM] | 24 hr Dox Inducible IL2FLGluc 293FRT/TO: IL2/PD1 [4] | EC50 [5] [µM] | EC50 [6] [µM] | Liver Microsome Stability (Multiple Species): Rat - % Remaining after 30 min w/NADPH [7] [%] | Liver Microsome Stability (Multiple Species): Mouse - % Remaining after 30 min w/NADPH [8] [%] | Liver Microsome Stability (Multiple Species): Human - % Remaining after 30 min w/NADPH [9] [%] | Liver Microsome Stability (Multiple Species): Monkey - % Remaining after 30 min w/NADPH [10] [%] |
| --- | --- | --- | --- | --- | --- | --- | --- | --- | --- | --- | --- | --- |
| CC(C)n1cnc(/C=C/Cc2csc(NC(=O)c3cccn3Cc3ccnc(F)c3)n2)c1 [Compound B106, (E)-1-((2-fluoropyridin-4-yl)methyl)-N-(4-(3-(1-isopropyl-1H-imidazol-4-yl)allyl)thiazol-2-yl)-1H-pyrrole-2-carboxamide] | 0.692 | > 25 | >36.1 | 1.28 | 3.01 | 4.3 | > 25 | > 25 | 5.01 | 0.95 | 0.59 | 0.06 |
| CC(C#N)n1cnc(/C=C/c2csc(NC(=O)c3cccn3Cc3ccnc(F)c3)n2)c1 (stereo not drawn) [Compound B107, (E)-N-(4-(2-(1-(1-cyanoethyl)-1H-imidazol-4-yl)vinyl)thiazol-2-yl)-1-((2-fluoropyridin-4-yl)methyl)-1H-pyrrole-2-carboxamide] | 0.476 | > 25 | >52.5 | > 25 | > 25 | >52 | > 25 | > 25 | 18.8 | 35.4 | 0.55 | 0.33 |
| N#CCCn1cnc(/C=C/c2csc(NC(=O)c3cccn3Cc3ccnc(F)c3)n2)c1 [Compound B108, (E)-N-(4-(2-(1-(2-cyanoethyl)-1H-imidazol-4-yl)vinyl)thiazol-2-yl)-1-((2-fluoropyridin-4-yl)methyl)-1H-pyrrole-2-carboxamide] | 6.04 | > 25 | >4.14 | > 25 | > 25 | >4.1 | > 25 | > 25 | 23.9 | 55.7 | 0.43 | 0.69 |
| NC(=O)CCn1cnc(/C=C/c2csc(NC(=O)c3cccn3Cc3ccnc(F)c3)n2)c1 [Compound B109, (E)-N-(4-(2-(1-(3-amino-3-oxopropyl)-1H-imidazol-4-yl)vinyl)thiazol-2-yl)-1-((2-fluoropyridin-4-yl)methyl)-1H-pyrrole-2-carboxamide] | > 25 | > 25 | <=>1.00 | > 25 | > 25 | <=>1.0 | > 25 | > 25 | 60.4 | 60.2 | 10.2 | 5.04 |
| CC(CC#N)n1cnc(/C=C/c2csc(NC(=O)c3cccn3Cc3ccnc(F)c3)n2)c1 (stereo not drawn) [Compound B110, (E)-N-(4-(2-(1-(1-cyanopropan-2-yl)-1H-imidazol-4-yl)vinyl)thiazol-2-yl)-1-((2-fluoropyridin-4-yl)methyl)-1H-pyrrole-2-carboxamide] | 2.21 | > 25 | >11.3 | > 25 | > 25 | >11 | > 25 | > 25 | 32.4 | 44.9 | 0.38 | 0.51 |
| CC(CC(N)=O)n1cnc(/C=C/c2csc(NC(=O)c3cccn3Cc3ccnc(F)c3)n2)c1 (stereo not drawn) [Compound B111, (E)-N-(4-(2-(1-(4-amino-4-oxobutan-2-yl)-1H-imidazol-4-yl)vinyl)thiazol-2-yl)-1-((2-fluoropyridin-4-yl)methyl)-1H-pyrrole-2-carboxamide] | > 25 | > 25 | ⇔1.00 | > 25 | > 25 | <=>1.0 | > 25 | > 25 | 75.4 | 61.7 | 9.45 | 5.79 |
| N#CCn1cnc(/C=C/c2csc(NC(=O)c3cccn3Cc3ccnc(F)c3)n2)c1 [Compound B112, (E)-N-(4-(2-(1-(cyanomethyl)-1H-imidazol-4-yl)vinyl)thiazol-2-yl)-1-((2-fluoropyridin-4-yl)methyl)-1H-pyrrole-2-carboxamide] | 0.217 | > 25 | >115 | > 25 | > 25 | >110 | > 25 | > 25 | 41.8 | 66.5 | 1.7 | 1.11 |
| CC(C(N)=O)n1cnc(/C=C/c2csc(NC(=O)c3cccn3Cc3ccnc(F)c3)n2)c1 (stereo not drawn) [Compound B113, (E)-N-(4-(2-(1-(1-amino-1-oxopropan-2-yl)-1H-imidazol-4-yl)vinyl)thiazol-2-yl)-1-((2-fluoropyridin-4-yl)methyl)-1H-pyrrole-2-carboxamide] | > 25 | > 25 | <=>1.00 | > 25 | > 25 | <=>1.0 | > 25 | > 25 | 69.7 | 68.2 | 7.08 | 3.11 |
